{"source": "patent US20190152946A1", "about": "“Novel Compounds” (GlaxoSmithKline Intellectual Property Development Limited, priority 2016, published 2019)", "type_in_all_cases": "cell-based", "key": {"IRAK3": {"target": "T1, IRAK3 (Homo sapiens, UniProt Q9Y616)", "T1 construct": "endogenous in cells; host or cells: THP-1", "T1 sequence (Q9Y616 1-596)": "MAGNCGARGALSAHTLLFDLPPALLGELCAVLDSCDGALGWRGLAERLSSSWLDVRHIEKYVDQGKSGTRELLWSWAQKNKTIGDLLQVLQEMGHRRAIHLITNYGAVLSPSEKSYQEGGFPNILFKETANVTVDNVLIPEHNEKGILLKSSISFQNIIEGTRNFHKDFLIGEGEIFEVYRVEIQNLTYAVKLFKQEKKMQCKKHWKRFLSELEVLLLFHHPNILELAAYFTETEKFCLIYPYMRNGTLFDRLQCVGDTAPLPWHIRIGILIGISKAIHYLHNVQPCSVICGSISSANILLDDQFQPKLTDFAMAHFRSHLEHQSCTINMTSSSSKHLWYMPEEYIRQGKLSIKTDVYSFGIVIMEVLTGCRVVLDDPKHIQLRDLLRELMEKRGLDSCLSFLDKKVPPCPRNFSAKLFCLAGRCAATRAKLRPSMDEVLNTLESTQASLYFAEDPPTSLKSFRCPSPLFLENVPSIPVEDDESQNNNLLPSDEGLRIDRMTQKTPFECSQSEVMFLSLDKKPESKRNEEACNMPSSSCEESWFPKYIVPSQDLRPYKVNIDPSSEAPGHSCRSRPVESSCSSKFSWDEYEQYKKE", "assay": "Expression proteomics in THP-1 cells, IRAK3 level", "conditions": "IRAK3 protein log2 fold change, 24 h, 1.0 μM", "procedure": "(§1) THP-1 cells were seeded at a concentration of 3×10^6 cells in T175 flasks with 60 mL growth medium (RPM11640+10% FBS). […] of a 10× compound solution prepared in growth medium (DMSO), IAP PROTAC) was added and the cells were treated for the indicated time points (6 or 24 h) at 37° C., 5% CO2. For harvesting the cells were collected into falcon tubes on ice, centrifuged and washed twice in cold PBS (Life technologies). After the last washing step the supernatant was removed and the pellets were snap-frozen in liquid N2 and stored at −80° C. and lysed in 2% SDS for 3 min at 95° C. in a thermomixer (Thermo Fisher Scientific), followed by digestion of DNA with Benzonase at 37° C. for 1.5 h. Lysate was cleared by centrifugation an protein concentration in supernatant was determined by BCA assay.\n(§2) Leukemia 25, 89-100 (2011).\n(§3) Samples were dried in vacuo and resuspended in 0.05% trifluoroacetic acid in water. […]\n(§4) Reporter ion intensities were read from raw data and multiplied with ion accumulation times (the unit is milliseconds) so as to yield a measure proportional to the number of ions;\n(§5) Nat Biotech 29, 255-265 (2011). this measure is referred to as ion area Savitski, M. M. et al. Delayed Fragmentation and Optimized Isolation Width Settings for Improvement of Protein Identification and Accuracy of Isobaric Mass Tag Quantification on Orbitrap-Type Mass Spectrometers. […]"}, "AURKA": {"target": "T2, AURKA (Homo sapiens, UniProt O14965)", "T2 construct": "endogenous in cells; host or cells: THP-1", "T2 sequence (O14965 1-403)": "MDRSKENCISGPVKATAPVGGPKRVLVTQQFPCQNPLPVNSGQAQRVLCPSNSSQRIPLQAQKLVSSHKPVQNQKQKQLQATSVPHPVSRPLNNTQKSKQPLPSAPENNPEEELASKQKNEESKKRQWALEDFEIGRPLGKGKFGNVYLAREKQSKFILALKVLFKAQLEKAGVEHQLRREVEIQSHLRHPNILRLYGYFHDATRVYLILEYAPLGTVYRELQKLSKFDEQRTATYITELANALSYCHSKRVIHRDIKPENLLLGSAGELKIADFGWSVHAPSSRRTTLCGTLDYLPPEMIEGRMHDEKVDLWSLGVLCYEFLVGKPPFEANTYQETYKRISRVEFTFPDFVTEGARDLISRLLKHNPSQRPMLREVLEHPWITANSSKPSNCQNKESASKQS", "assay": "Expression proteomics in THP-1 cells, AURKA level", "conditions": "AURKA protein log2 fold change, 24 h, 1.0 μM", "procedure": "as §1, §2, §3, §4, §5"}, "BTK": {"target": "T3, BTK (Homo sapiens, UniProt Q06187)", "T3 construct": "endogenous in cells; host or cells: THP-1", "T3 sequence (Q06187 whole entry)": "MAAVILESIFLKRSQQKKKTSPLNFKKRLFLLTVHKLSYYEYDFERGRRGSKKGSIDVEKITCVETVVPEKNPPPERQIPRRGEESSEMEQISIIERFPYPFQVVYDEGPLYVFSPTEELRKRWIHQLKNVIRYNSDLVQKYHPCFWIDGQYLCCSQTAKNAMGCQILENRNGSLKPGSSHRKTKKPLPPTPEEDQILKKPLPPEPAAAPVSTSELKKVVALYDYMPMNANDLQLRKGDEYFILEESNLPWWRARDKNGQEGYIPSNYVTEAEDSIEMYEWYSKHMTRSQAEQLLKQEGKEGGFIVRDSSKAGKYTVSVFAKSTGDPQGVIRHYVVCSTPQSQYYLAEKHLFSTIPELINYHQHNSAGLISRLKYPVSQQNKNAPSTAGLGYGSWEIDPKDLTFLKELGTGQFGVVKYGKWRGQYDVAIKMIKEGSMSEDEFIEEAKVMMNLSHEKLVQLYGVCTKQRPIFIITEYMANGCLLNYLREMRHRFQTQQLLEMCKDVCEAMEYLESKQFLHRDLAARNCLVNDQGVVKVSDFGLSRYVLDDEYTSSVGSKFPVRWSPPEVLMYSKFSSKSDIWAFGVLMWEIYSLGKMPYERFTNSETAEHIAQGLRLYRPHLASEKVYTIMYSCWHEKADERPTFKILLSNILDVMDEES", "assay": "Expression proteomics in THP-1 cells, BTK level", "conditions": "BTK protein log2 fold change, 24 h, 1.0 μM", "procedure": "as §1, §2, §3, §4, §5"}}}
{"smiles": "CNC(=O)c1ccccc1Nc1nc(Nc2ccc(N3CCN(CCOCCOCCOCCOc4ccc5c(c4)CN(C(=O)[C@@H](NC(=O)[C@H](C)NC)C(C)(C)C)[C@H](C(=O)N[C@@H]4CCCc6ccccc64)C5)CC3)cc2)ncc1Cl", "note": "[IAP, (S)-7-(2-(2-(2-(2-(4-(4-((5-Chloro-4-((2-(methylcarbamoyl)phenyl)amino)pyrimidin-2-yl)amino)phenyl)piperazin-1-yl)ethoxy)ethoxy)ethoxy)ethoxy)-2-((S)-3,3-dimethyl-2-((S)-2-(methylamino)propanamido)butanoyl)-N-((R)-1,2,3,4-tetrahydronaphthalen-1-yl)-1,2,3,4-tetrahydroisoquinoline-3-carboxamide]", "values": [{"measurement": "log2fc_IAP_24 h_1.0 μM_n1", "setting": "IRAK3; replicate n1", "value": "−2.28"}, {"measurement": "log2fc_IAP_24 h_1.0 μM_n2", "setting": "IRAK3; replicate n2", "value": "−2.47"}, {"measurement": "log2fc_IAP_24 h_1.0 μM_n1", "setting": "AURKA; replicate n1", "value": "−1.81"}, {"measurement": "log2fc_IAP_24 h_1.0 μM_n2", "setting": "AURKA; replicate n2", "value": "−1.42"}, {"measurement": "log2fc_IAP_24 h_1.0 μM_n1", "setting": "BTK; replicate n1", "value": "−1.53"}, {"measurement": "log2fc_IAP_24 h_1.0 μM_n2", "setting": "BTK; replicate n2", "value": "−1.66"}]}
